{"source": "patent US10105552B2", "about": "“Formulations of histone deacetylase inhibitor and uses thereof” (Pharmacyclics LLC, priority 2009, dated 2018)", "key": {"[1]": {"experiment": "Clinical trial PK of Compound 1 solution, oral and IV dosing", "conditions": "human, in vivo, humans", "method": "In clinical trials involving humans with cancer, Compound 1 in solution form was administered at 2 mg/kg as a single oral dose and as multiple 2-hour IV infusion doses.\nCompound 1 appears to be preferentially absorbed in the intestines."}, "[2]": {"experiment": "Phase 1 trial, safety/tolerability and response by oral dosing schedule", "assay_type": "in vivo", "method": "This is a Phase 1 dose-escalation study of the safety, pharmacokinetics, and pharmacodynamics of Compound 1, HCl administered orally in patients with advanced cancer.\nIn the Phase 1 dose escalation study, up to 7 cohorts will receive Compound 1, HCl orally at doses starting at 30 mg/m^2, approximately 4-6 hours apart, up to 90 mg/m^2, 2 or 3 times a day according to 3 different dosing schedules within 28 day cycle (5 days of dosing followed by 2 days of no dosing; 5 days of dosing followed by 9 days of no dosing; 7 days of dosing followed by 7 days of no dosing) until the maximum tolerated dose is reached.\nThe doses were given at the same time each day. […] The two doses were given at the same time each day, with the second dose being administered approximately 4 to 6 hours from the first dose.\nIn the event that a patient experiences a treatment-related decrease in platelets to <25,000 per mm^2, the severity of the thrombocytopenia may be ameliorated by dosing in cycles consisting 5 consecutive days of oral dosing followed by 9 consecutive days without dosing."}, "[3]": {"test_system": "Neuroblastoma cell lines and patient-derived primary neuroblastoma cultures", "experiment": "Neuroblastoma cell viability, calcein AM assay", "assay_type": "cell-based", "conditions": "48 hours treatment", "method": "Neuroblastoma cell lines and patient-derived primary neuroblastoma cultures were treated with bortezomib, Compound 1 alone or a combination of both agents for 48 hours. Cells were also treated with HDAC inhibitors vorinostat, sodium butyrate, and valproic acid and viability was assessed by calcein AM assays. mRNA from treated cells was evaluated at 6 and 24 hours using U133+ mRNA expression arrays and Ingenuity analysis. Dichlorofluorescein (DCF) was used to measure reactive oxygen species (ROS). Cell viability assays were repeated in the presence of N-acetylcysteine (NAC). Western blot evaluated caspase-3 and PARP cleavage. Nude mice were injected with 10^7 SMS-KCNR cells subcutaneously and treated with daily doses of 0.5 mg/kg bortezomib, 12.5 mg/kg Compound 1, or a combination of the two agents. Tumors were measured and imaged twice per week."}, "tumor cell lines": {"test_system": "tumor cell lines", "experiment": "Preclinical activity against tumor cell lines", "assay_type": "cell-based", "conditions": "many tumor cell lines"}, "[4]": {"test_system": "lung, colon, prostate, pancreatic and brain tumors", "experiment": "Preclinical mouse tumor models", "assay_type": "in vivo"}, "[5]": {"test_system": "primary human tumors from patients with colon, ovarian, lung and many hematological cancers", "experiment": "Ex vivo activity in primary human tumors", "assay_type": "cell-based"}, "RAD51": {"test_system": "RAD51", "experiment": "Pre-clinical models, DNA repair gene expression"}}}
{"smiles": "CN(C)Cc1c(C(=O)NCCOc2ccc(C(=O)NO)cc2)oc2ccccc12", "note": "[Compound 1, N-hydroxy-4-{2-[3-(N,N-dimethylaminomethyl)benzofuran-2-ylcarbonylamino]ethoxy}-benzamide]", "values": [{"measurement": "bioavailability", "setting": "[1]; 2 mg/kg, immediate release capsules or an oral solution", "result": "~27", "unit": "%"}, {"measurement": "bioavailability", "setting": "[1]; from AUC0-∞ oral vs IV, 2 mg/kg solution", "result": "~27", "unit": "%"}, {"measurement": "therapeutic effect", "setting": "[2]; immediate release capsule, 2 or 3 consecutive doses each 4 to 6 hours apart on dosing days", "result": "achieved"}, {"measurement": "incidence of Grade 4 thrombocytopenia (platelet count <25,000 per mm^2)", "setting": "[2]; in vivo, po", "result": "limited incidence"}, {"measurement": "pharmacodynamic response", "setting": "[2]; solid tumor and lymphoma patients, cycles of 7 days oral dosing then 7 days without dosing", "result": "achieved"}, {"measurement": "IC50", "setting": "[3]", "result": "< 200", "unit": "nM"}, {"measurement": "activity against tumor cell lines", "setting": "tumor cell lines", "result": "active"}, {"measurement": "efficacy in mouse tumor models", "setting": "[4]", "result": "efficacious"}, {"measurement": "ex vivo activity in primary human tumors", "setting": "[5]", "result": "active"}, {"measurement": "effect on RAD51 (and other DNA repair genes)", "setting": "RAD51", "result": "able to turn off RAD51"}]}
{"smiles": "CC(C)C[C@H](NC(=O)[C@H](Cc1ccccc1)NC(=O)c1cnccn1)B(O)O", "note": "[bortezomib, reference compound]", "values": [{"measurement": "IC50", "setting": "[3]", "result": "< 50", "unit": "nM"}]}
